Data taken from patent publication US20070128217A1 (priority 2003, published 2007).

How the values were obtained:
[1] = test system: antibodies in sera from SARS patients (sera 1a, 1b, 2, 6, 37, 62, London, SARS-yellow, SARS-green); type: binding, human; set-up: Binding of serum 6 to linear peptides of protein X1 of SARS-CoV Urbani / Binding of serum 37 to linear peptides of protein X1 of SARS-CoV Urbani / Binding of serum 6 to looped/cyclic peptide (PEPSCAN-ELISA) / Binding of serum 37 to looped/cyclic peptide (PEPSCAN-ELISA) / Binding of serum 37 to looped/cyclic peptides of protein X1 of SARS-CoV Urbani / Binding of serum 6 to linear peptides of protein X2 / Binding of serum 37 to linear peptides of protein X2 / Binding of serum 37 to looped/cyclic peptides of protein X2 of SARS-CoV Urbani / Binding of serum 6 to linear peptides of protein M of SARS-CoV Urbani / Binding of serum 37 to linear peptides of protein M of SARS-CoV Urbani / Binding of serum 6 to looped/cyclic peptides of protein M of SARS-CoV Urbani / Binding of serum 37 to looped/cyclic peptides of protein M of SARS-CoV Urbani / Binding of serum 6 to linear peptides of protein X3 of SARS-CoV Urbani / Binding of serum 37 to linear peptides of protein X3 of SARS-CoV Urbani / Binding of serum 37 to looped/cyclic peptides of protein X3 of SARS-CoV Urbani / Binding of serum 6 to linear peptides of protein X4 of SARS-CoV Urbani / Binding of serum 37 to linear peptides of protein X4 of SARS-CoV Urbani / Binding of serum 37 to looped/cyclic peptides of protein X4 of SARS-CoV Urbani / Binding of serum 6 to linear peptides of protein X5 of SARS-CoV Urbani / Binding of serum 37 to linear peptides of protein X5 of SARS-CoV Urbani / Binding of serum 37 to looped/cyclic peptides of protein X5 of SARS-CoV Urbani / Binding of serum 6 to linear peptides of protein N of SARS-CoV Urbani / Binding of serum 37 to linear peptides of protein N of SARS-CoV Urbani / Binding of serum 6 to linear peptide (PEPSCAN-ELISA) / Binding of serum 1a to looped/cyclic peptides of protein N of SARS-CoV Urbani / Binding of serum 1b to looped/cyclic peptides of protein N of SARS-CoV Urbani / Binding of serum 2 to looped/cyclic peptides of protein N of SARS-CoV Urbani / Binding of serum 6 to looped/cyclic peptides of protein N of SARS-CoV Urbani / Binding of serum 37 to looped/cyclic peptides of protein N of SARS-CoV Urbani / Binding of serum 62 to looped/cyclic peptides of protein N of SARS-CoV Urbani / Binding of serum London to looped/cyclic peptides of protein N of SARS-CoV Urbani / Binding of serum SARS-green to looped/cyclic peptides of protein N of SARS-CoV Urbani: unit not given here
[2] = test system: control sera (pooled serum of ten healthy LUMC hospital workers; commercial negative donor pooled serum from the Dutch bloodbank); type: binding, human; set-up: Binding of Control serum LUMC to linear peptides / Binding of Control serum Blood-bank to linear peptides / Binding of Control serum LUMC to looped peptides / Binding of Control Serum Blood-Bank to Looped peptides / Binding of Control serum LUMC to linear peptides of the protein M of SARS-CoV Urbani / Binding of Control serum Blood-bank to linear peptides of the protein M of SARS-CoV Urbani / Binding of Control serum LUMC to looped peptides of the protein M of SARS-CoV Urbani / Binding of Control Serum Blood-Bank to Looped peptides of the protein M of SARS-CoV Urbani: unit not given here
[3] = test system: rabbit serum obtained by immunizing a rabbit with the SARS-CoV strain Frankfurt 1; type: binding; set-up: Binding of a rabbit serum to linear peptides / Binding of a rabbit serum to looped peptides / Rabbit serum linear peptides / Rabbit serum looped peptides / Binding of a rabbit serum to linear peptides of protein N of SARS-CoV Urbani (Rabbit serum linear peptides) / Binding of a rabbit serum to looped/cyclic peptides of protein N of SARS-CoV Urbani (Rabbit serum looped peptides): unit not given here

## KFALTCTSTHFAFAC
[1]
  Binding of serum 1a to linear peptides of protein X4 of SARS-CoV Urbani: 0.8
  Binding of serum 1a to looped/cyclic peptides of protein X4 of SARS-CoV Urbani: 1.0
  Binding of serum 1b to linear peptides of protein X4 of SARS-CoV Urbani: 0.6
  Binding of serum 1b to looped/cyclic peptides of protein X4 of SARS-CoV Urbani: 0.7
  Binding of serum 2 to linear peptides of protein X4 of SARS-CoV Urbani: 0.5
  Binding of serum 2 to looped/cyclic peptides of protein X4 of SARS-CoV Urbani: 0.9
  Binding of serum 6 to linear peptides of protein X4 of SARS-CoV Urbani: 0.8
  Binding of serum 6 to looped/cyclic peptides of protein X4 of SARS-CoV Urbani: 0.7
  Binding of serum 37 to linear peptides of protein X4 of SARS-CoV Urbani: 0.8
  Binding of serum 37 to looped/cyclic peptides of protein X4 of SARS-CoV Urbani: 0.7
  Binding of serum 62 to linear peptides of protein X4 of SARS-CoV Urbani: 0.8
  Binding of serum 62 to looped/cyclic peptides of protein X4 of SARS-CoV Urbani: 0.9
  Binding of serum London to linear peptides of protein X4 of SARS-CoV Urbani: 0.8
  Binding of serum London to looped/cyclic peptides of protein X4 of SARS-CoV Urbani: 0.4
  Binding of serum SARS-green to linear peptides of protein X4 of SARS-CoV Urbani: 0.4
  Binding of serum SARS-green to looped/cyclic peptides of protein X4 of SARS-CoV Urbani: 0.8
  Binding of serum SARS-yellow to linear peptides of protein X4 of SARS-CoV Urbani: 0.6
  Binding of serum SARS-yellow to looped/cyclic peptides of protein X4 of SARS-CoV Urbani: 0.8
[2]
  Binding of Control Serum Blood-Bank to Looped peptides: 0.9
  Binding of Control serum Blood-bank to linear peptides: 0.7
  Binding of Control serum LUMC to linear peptides: 0.7
  Binding of Control serum LUMC to looped peptides: 0.8
[3]
  Rabbit serum linear peptides: 0.5
  Rabbit serum looped peptides: 0.6

## KFTTSLSLHKLLQTL
[1]
  Binding of serum 1a to linear peptides of protein X2: 0.5
  Binding of serum 1a to looped/cyclic peptides of protein X2 of SARS-CoV Urbani: 0.5
  Binding of serum 1b to linear peptides of protein X2: 0.4
  Binding of serum 1b to looped/cyclic peptides of protein X2 of SARS-CoV Urbani: 0.4
  Binding of serum 2 to linear peptides of protein X2: 0.4
  Binding of serum 2 to looped/cyclic peptides of protein X2 of SARS-CoV Urbani: 0.5
  Binding of serum 6 to linear peptides of protein X2: 0.6
  Binding of serum 6 to looped/cyclic peptides of protein X2 of SARS-CoV Urbani: 0.4
  Binding of serum 37 to linear peptides of protein X2: 0.5
  Binding of serum 37 to looped/cyclic peptides of protein X2 of SARS-CoV Urbani: 0.5
  Binding of serum 62 to linear peptides of protein X2: 0.6
  Binding of serum 62 to looped/cyclic peptides of protein X2 of SARS-CoV Urbani: 0.5
  Binding of serum London to linear peptides of protein X2: 0.5
  Binding of serum London to looped/cyclic peptides of protein X2 of SARS-CoV Urbani: 0.6
  Binding of serum SARS-green to linear peptides of protein X2: 0.4
  Binding of serum SARS-green to looped/cyclic peptides of protein X2 of SARS-CoV Urbani: 0.4
  Binding of serum SARS-yellow to linear peptides of protein X2: 0.5
  Binding of serum SARS-yellow to looped/cyclic peptides of protein X2 of SARS-CoV Urbani: 0.3
[2]
  Binding of Control Serum Blood-Bank to Looped peptides: 0.5
  Binding of Control serum Blood-bank to linear peptides: 0.6
  Binding of Control serum LUMC to linear peptides: 0.4
  Binding of Control serum LUMC to looped peptides: 0.5
[3]
  Binding of a rabbit serum to linear peptides: 0.2
  Binding of a rabbit serum to looped peptides: 0.4

## KGFQFICNLLLLFVT
[1]
  Binding of serum 1a to linear peptides of protein X1 of SARS-CoV Urbani: 0.6
  Binding of serum 1a to looped/cyclic peptide (PEPSCAN-ELISA): 0.6
  Binding of serum 1b to linear peptides of protein X1 of SARS-CoV Urbani: 0.5
  Binding of serum 1b to looped/cyclic peptide (PEPSCAN-ELISA): 0.4
  Binding of serum 2 to linear peptides of protein X1 of SARS-CoV Urbani: 0.6
  Binding of serum 2 to looped/cyclic peptide (PEPSCAN-ELISA): 0.4
  Binding of serum 6 to linear peptides of protein X1 of SARS-CoV Urbani: 0.5
  Binding of serum 6 to looped/cyclic peptide (PEPSCAN-ELISA): 1.0
  Binding of serum 37 to linear peptides of protein X1 of SARS-CoV Urbani: 0.6
  Binding of serum 37 to looped/cyclic peptide (PEPSCAN-ELISA): 0.6
  Binding of serum 62 to linear peptides of protein X1 of SARS-CoV Urbani: 0.7
  Binding of serum 62 to looped/cyclic peptide (PEPSCAN-ELISA): 0.6
  Binding of serum London to linear peptides of protein X1 of SARS-CoV Urbani: 0.3
  Binding of serum London to looped/cyclic peptide (PEPSCAN-ELISA): 1.1
  Binding of serum SARS-green to linear peptides of protein X1 of SARS-CoV Urbani: 0.2
  Binding of serum SARS-green to looped/cyclic peptide (PEPSCAN-ELISA): 0.4
  Binding of serum SARS-yellow to linear peptides of protein X1 of SARS-CoV Urbani: 0.6
  Binding of serum SARS-yellow to looped/cyclic peptide (PEPSCAN-ELISA): 0.6
[2]
  Binding of Control Serum Blood-Bank to Looped peptides: 0.5
  Binding of Control serum Blood-bank to linear peptides: 0.7
  Binding of Control serum LUMC to linear peptides: 0.7
  Binding of Control serum LUMC to looped peptides: 0.5
[3]
  Binding of a rabbit serum to linear peptides: 0.6
  Binding of a rabbit serum to looped peptides: 0.5
